In patent publication US20110281883A1, “4-Phenyl-pyrane-3,5-diones, 4-Phenyl-thiopyrane-3,5-diones and Cyclohexanetriones and Their Use as Insecticides, Acaricides and/or Fungicides” (Bayer Cropscience AG, priority 2009, published 2011) one finds melting point and mortality data, which are given here for four compounds.

The structures appear in SMILES notation.

A word on the melting point: it is the temperature of the solid-liquid transition. As usually defined, the mortality is the share of the test organisms that died.

The subject of data set [1] is two spotted spidermite (Tetranychus urticae), OP-resistant. The data set is described as follows: Tetranychus urticae test; OP-resistant (TETRUR spray application). It counts as in vivo. The conditions noted are these: in Phaseolus vulgaris, 144 h, read-out: mortality in % (good activity). Here is the method: Tetranychus urticae—Test; OP-Resistant (TETRUR Spray Application)
Solvent: 78.0 parts by weight acetone • 1.5 parts by weight dimethylformamide
Emulsifier: 0.5 parts by weight alkylarylpolyglcolether
To produce a suitable preparation of active compound, 1 part by weight of active compound is mixed with the stated amount of solvent and emulsifier, and the concentrate is diluted with emulsifier-containing water to the desired concentration.French beans (Phaseolus vulgaris) which are heavily infested with all stages of the two spotted spidermite (Tetranychus urticae), are sprayed with a preparation of the active ingredient at the desired concentration. After 6 days mortality in % is determined. 100% means that all spider mites have been killed and 0% means that none of the spider mites have been killed.

The subject of data set [2] is mustard beetle larvae (Phaedon cochleariae). The data set is described as follows: Phaedon cochleariae test (PHAECO spray application). It counts as in vivo. The conditions noted are these: 168 h, application rate 500 g/ha, sprayed Chinese cabbage (Brassica pekinesis) leaf-disks, after 7 days, read-out: mortality in % (good activity). Here is the method:
Phaedon cochleariae—Test; (PHAECO Spray Application)
Solvent: 78.0 parts by weight of acetone • • 1.5 parts by weight of dimethylformamide
Emulsifier: 0.5 parts by weight of alkylaryl polyglycolether
To produce a suitable preparation of active compound, 1 part by weight of active compound is mixed with the stated amount of solvent and emulsifier, and the concentrate is diluted with emulsifier-containing water to the desired concentration.Chinese cabbage (Brassica pekinesis) leaf-disks are sprayed with a preparation of the active ingredient of the desired concentration. Once dry, the leaf disks are infested with mustard beetle larvae (Phaedon cochleariae). After 7 days mortality in % is determined. 100% means that all beetle larvae have been killed and 0% means that none of the beetle larvae have been killed.

`CCc1ccc(-c2ccc(F)cc2)cc1C1=C(O)[C@@]2(C)CC[C@H](O2)C1=O` yielded a melting point of 165 to 167 °C. `CCc1ccc(-c2ccc(Cl)cc2)cc1C1=C(O)C(C)(C)OC(C)(COC)C1=O` (centres unmarked) came in with a melting point of 123 to 124 °C. `CCc1ccc(-c2ccc(Cl)cc2)cc1C1=C(O)C2CCCC(C1=O)C2=O` (centres unmarked): the melting point was determined as 79.5 °C. As for `CCc1ccc(-c2ccc(Cl)cc2)cc1C1=C(O)C(C)(C)C(=O)C(C)(C)C1=O` [Compound B-1], in data set [1], the mortality at 100 g/ha was not below 80%. In data set [2], the mortality at 500 g/ha is more than 80%.
